System: acute, orchiectomized (ORX) rabbit model
Experiment: Tear fatty acid composition (palmitate:stearate ratio) after Compound 2 or TP, Example 3
Assay type: in vivo
Conditions: ORX rabbits; for Tear palmitate:stearate ratio after 4 week washout: then untreated 4 weeks
Text: The goal of this study was to compare the effect of Compound 2 to testosterone propionate (TP) on tear composition in an acute, orchiectomized (ORX) rabbit model.
Fifteen New Zealand white rabbits weighing approximately 3 lbs were allowed to acclimate for 4 weeks before the start of the study. Animals were weighed on day 0 of the study, randomized according to body weight and allotted to the following dose groups:
Pre-dose tear and blood samples were collected. Animals from groups 2-5 were to premedicated with glycopyrrolate (0.02 mg/kg) and then anesthesia was induced with a combination of ketamine (15 mg/kg): medetomidine (0.25 mg/kg).
Anesthesia was maintained with isoflurane (1 liter/hr). Orchiectomy was performed using a scrotal incision. Animals were revived from anesthesia using atipamezole (1 mg/kg) SQ. Analgesia was provided with buprenorphine (0.05 mg/kg) Immediately after the animals had recovered from anesthesia, they received their first dose with the appropriate test articles as indicated above.
Drug dosing was done once daily for 14 days. Blood was collected at 60 minutes post administration of the last dose of drug and plasma separated for HPLC analysis of parent drug concentrations.
Tears were collected using Schirmer tear strips (Alcon, Tex.) on day 0 before surgery, 24 hours after the last administration of drug (day 15) and also at 42 days (6 weeks after start of study). The tears were stored at −80° C. prior to lipid analysis.
Lipids were hydrolyzed, extracted from the Schirmer strips, derivatized, and subjected to gas chromatography with flame ionization detector (GCFID) to evaluate the lipid composition.
The samples were evaluated for the presence of 28 saturated and unsaturated fatty acids that included methyl caprate (C10:0), methyl laurate (C12:0), methyl 11-dodecenoate (C12:1), methyl myristate (C14:0), methyl myristoleate (C14:1), methyl palmitate (C16:0), methyl palmitoleate (C16:1), methyl stearate (C18:0), methyl oleate (C18:1), methyl vaccenate (C18:1), methyl linoleate (C18:2), methyl gamma linoleate (C18:3), methyl linoleate (C18:3), methyl arachidate (C20:0), methyl 11-eicosenoate (C20:1), methyl 11,14 eicosadinoate (C20:2), methyl 8,11,14 eicosatrienoate (C20:3), methyl eicosapentaenoate (C20:5), methyl behenate (C22:0), methyl erucate (C22:1), methyl 13,16 docosaenoate (C22:2), methyl docosatetraenoate (C22:4), methyl docosapentaenoate (C22:5), methyl docosahexaenoate (C22:6), methyl lignocerate (C24:0), and methyl nervonate (C24:1).
The area under the curve for each individual peak was determined using GC ChemStation software. […] These samples were then washed with a saturated solution of NaCl+0.1% formic acid (FA). […] These samples were all in the predose tear group. Two more samples from the predose group and one sample from Vehicle Intact treated group had small but clear and well to separated peaks that were included in the analysis.
To normalize for the tear content, the lipid composition was expressed as a ratio of the lipid that was most affected by castration (palmitate) to one which remained relatively constant (stearate). Blood was also collected on day 15 (24 hours after last drug administration) of the study, plasma separated and analyzed for Compound 2.
The last dose of drug or vehicle was administered on day 15 of the study Animals were left untreated for 4 weeks (washout period) before tear samples were collected again on Schirmer tear strips and analyzed as indicated above.

## C[C@](O)(COc1ccc(C#N)c(F)c1)C(=O)Nc1ccc(C#N)c(C(F)(F)F)c1 [Compound 2, (S)—N-(4-cyano-3-(trifluoromethyl)phenyl)-3-(4-cyano-3-fluorophenoxy)-2-hydroxy-2-methylpropanamide]
2.5 mg/kg, 14 days
  Increase of tear palmitate:stearate ratio relative to intact animals: two times that of intact animals
SQ 2.5 mg/kg for two weeks
  Tear palmitate:stearate ratio after 4 week washout: 1.47±0.172
Topical 2.5 mg/kg for two weeks
  Tear palmitate:stearate ratio after 4 week washout: 1.66±0.426
